Assay results as given in patent US20110224245A1, “Treatment Of Neurological Disorders Using Huperzine” (President and Fellows of Harvard College, priority 2008, published 2011).

Assays:
[1] = tested on: Subcutaneous Metrazol (pentylenetetrazol; SCMET) seizures; test: Subcutaneous Metrazol (SCMET / scPTZ) model, rats, oral; type: in vivo
Procedure: (§1) Huperzine A was evaluated in the Maximal Electroshock (MES) and Subcutaneous Metrazol (pentylenetetrazol; SCMET) models of generalized tonic-clonic and myoclonic seizures, respectively in mice and rats.
The Subcutaneous Metrazole (SCMET) model is also an art-recognized test for therapeutic agents for epilepsy, and in particular, is useful for investigating petite mal seizures. A Metrazole dose of 85 mg/kg was administered subcutaneously to induce seizures. Huperzine was then administered and the animals observed.
Peak anticonvulsant activity was observed one-hour after p.o. administration of 1 mg/kg.

[2] = tested on: rats; test: Toxicity (TOX) / minimal motor impairment, rats, oral; type: in vivo
[3] = tested on: patients; conditions: published clinical studies; mainly cholinergic (dizziness, nausea, gastrointestinal symptoms, sweating, depressed heart rate); cited from earlier work
[4] = tested on: 6 Hz seizures; test: 6 Hz anticonvulsant evaluation in mice, ICV administration; type: in vivo
Text: Huperzine delivered directly to the central nervous system (e.g., cerebral ventricles, intrathecal space), via direct injection and/or through an apparatus such as a pump or material containing Huperzine, bypasses the systemic effect by minimizing bioavailability of Huperzine in the rest of the body, and potently prevents and treats seizure, pain and/or other neurological conditions.
Results after direct administration to neural tissue using an art-recognized 6-HZ animal model are shown below.
Doses listed as pmol/5 microliter injection volume for ICV. TD50 at 0.5 hrs: 36.15 (9.35-121.74) 1.57+/−0.51.
Male, 18-25 g CF1 mice and 100-125 g Sprague-Dawley rats (Charles River Laboratories, Wilmington, Mass.) were used as the experimental animals. Animals were pretreated intraperitoneally (i.p.) with increasing doses of HupA and tested at various times after administration for protection against tonic extension (MES test), minimal clonic (s.c. PTZ test), limbic (6 Hz), or secondarily generalized (kindled rat) seizures. Seizure testing was carried out as follows. For the MES and 6 Hz tests, a drop of anesthetic/electrolyte solution (0.5% tetracaine hydrochloride in 0.9% saline) was applied to the eyes of each animal prior to placement of the corneal electrodes. The electrical stimulus in the MES test was 50 mA, 60 Hz, for mice and 150 mA, 60 Hz, for rats, delivered for 0.2 sec (White et al., 2002, In R. H. Levy et al., eds. Antiepileptic Drugs, 5th edition, p. 36-48, Philadelphia: Lippincott Williams & Wilkins). The ability of the test substance to prevent seizures induced by 6 Hz corneal stimulation (32 mA, 3 sec duration) was assessed at various times after i.p. administration of 1 mg/kg HupA For assessment of hippocampal kindling, HupA (1 mg/kg, i.p.) was administered. The ability of the compound to block the expression of hippocampal kindled seizures was evaluated using the rapid hippocampal kindling model (White et al., 2002). Animals not displaying secondarily generalize seizures were considered protected.

[5] = tested on: formalin-induced paw-licking; test: Formalin test (paw licking) in mice; type: in vivo
Procedure: The formalin test for antinociceptive activity is described in numerous publications, e.g., Hunskaar, S., O. B. Fasmer, and K. Hole, J. Neurosci. […] The formalin test is accepted as an art recognized model of persistent clinical pain.
Male Swiss Webster NIH mice (20-30 g; Harlan, San Diego, Calif.) were used in the experiments described herein. Food was withdrawn on the day of experiment. Mice were placed in Plexiglass jars for at least 1 hour to accommodate to the environment. Following the accommodation period, mice were weighed and given either a huperzine compound administered intraperitoneal (i.p.) or oral (p.o.), or the appropriate volume of vehicle (10% Tween-80). Fifteen minutes after the i.p. dosing, and 30 minutes after the p.o. dosing mice were injected with formalin (20 μL of 5% formaldehyde solution in saline) into the dorsal surface of the right hind paw. Mice were transferred to the Plexiglass jars and monitored for the amount of time spent licking or biting the injected paw. Periods of licking and biting were recorded in 5 minute intervals for 40 minutes after the formalin injection. All experiments were done in a blinded manner. The early phase (acute) of the formalin response is measured as licking/biting between 0-5 minutes, and the late phase (inflammatory) is measured from 10-40 minutes. Differences between vehicle and drug treated groups are analyzed by one-way analysis of variance (ANOVA). A P value<0.05 is considered significant.
Fifteen minutes after the i.p. dosing, mice were injected with formalin (20 μL of 5% formaldehyde solution in saline) into the dorsal surface of the right hind paw. Periods of licking and biting were recorded in 5 minute intervals for 40 minutes after the formalin injection as shown below in Tables 1 and 2. All experiments were done according to the art-recognized Anticonvulsant Screening Program of the NINDS at the University of Utah.
Duration of paw licking in the tables below is expressed in seconds.

[6] = tested on: maximal electroshock seizure (MES); test: Maximal Electroshock (MES) model, mice i.p.; type: in vivo; conditions: 1 mg/kg
Procedure: as §1
The maximal electroshock (MES) model is an art recognized test, useful to investigate the efficacy of therapeutic agents against grand mal seizures. Maximal seizures were induced by the application of electrical current to the brain via corneal electrodes. The stimulus parameters for mice were 50 mA in a pulse of 60 Hz for 200 ms. The animals were given the huperzine dissolved in methyl cellulose and spasm inhibition was recorded as a measure of anticonvulsant activity.
Huperzine A was either administered in a soluble form (SOL) or as a suspension (SUS). […]
Male, 18-25 g CF1 mice and 100-125 g Sprague-Dawley rats (Charles River Laboratories, Wilmington, Mass.) were used as the experimental animals. […] The ability of the test substance to prevent seizures induced by 6 Hz corneal stimulation (32 mA, 3 sec duration) was assessed at various times after i.p. administration of 1 mg/kg HupA For assessment of hippocampal kindling, HupA (1 mg/kg, i.p.) was administered. The ability of the compound to block the expression of hippocampal kindled seizures was evaluated using the rapid hippocampal kindling model (White et al., 2002). […]

C/C=C1\[C@H]2C=C(C)C[C@]1(N)c1ccc(=O)[nH]c1C2 [Huperzine A]
time of peak anticonvulsant activity ([1]; after p.o. administration of 1 mg/kg): one-hour
time of peak activity post administration ([1]; rats, 1 mg/kg oral): between 30 minutes and two hours
behavioral impairment at anticonvulsant doses [2]: marked motor impairment
toxicity ([2]; 1 mg/kg oral): no toxicity
adverse effects in patients [3]: adverse effects were noted infrequently
ED50 ([4]; 6 HZ, ICV, 32 mA, 0.5 h): 0.21 pmol/5 microliter injection volume
N/F (animals active over number tested) ([4]; ICV, 32 mA, 0.5 h, dose 0.01 (pmol/5 microliter; head prints mg/kg)): 3/8
N/F (animals active over number tested) ([4]; ICV, 32 mA, 0.5 h, dose 1 (pmol/5 microliter; head prints mg/kg)): 5/8
N/F (animals active over number tested) ([4]; ICV, 32 mA, 0.5 h, dose 10 (pmol/5 microliter; head prints mg/kg)): 6/8
N/F (animals active over number tested) ([4]; ICV, 32 mA, 0.5 h, dose 100 (pmol/5 microliter; head prints mg/kg)): 8/8
N/F (animals active over number tested) ([4]; ICV, 32 mA, 0.5 h, dose 1000 (pmol/5 microliter; head prints mg/kg)): 4/4
Time to Peak Effect N/F ([4]; ICV, 32 mA, dose 10 (pmol/5 microliter), 0.25 h): 2/4
Time to Peak Effect N/F ([4]; ICV, 32 mA, dose 10 (pmol/5 microliter), 0.5 h): 3/4
Time to Peak Effect N/F ([4]; ICV, 32 mA, dose 100 (pmol/5 microliter), 0.25 h): 4/4
Time to Peak Effect N/F ([4]; ICV, 32 mA, dose 100 (pmol/5 microliter), 0.5 h): 3/4
Time to Peak Effect N/F ([4]; ICV, 32 mA, dose 100 (pmol/5 microliter), 1.0 h): 1/4
ICV ED50 dose ([4]; mouse 6-hz model, ICV): 52 pgrams
maximum concentration in the cerebral ventricles after the ICV ED50 dose ([4]; mouse 6-hz model, ICV ED50 dose, 40 μL): approximately 1.3 pgram/μL
Area Under the Curve, % of Control ([5]; 0.5 mg/kg i.p., Acute phase): 2.8%
Area Under the Curve, % of Control ([5]; 0.5 mg/kg i.p., Inflammatory phase): 0.0%
inhibition of phase 1 (acute) pain response ([5]; 1 mg/kg i.p.): complete inhibition
inhibition of phase 2 (inflammatory) pain response ([5]; 1 mg/kg i.p.): complete inhibition
Area Under the Curve, % of Control ([5]; 1 mg/kg i.p., Acute phase): 0.0%
Area Under the Curve, % of Control ([5]; 1 mg/kg i.p., Inflammatory phase): 0.0%
protection in the mouse MES test (FIG. 1) [6]: time-dependent protection
